Test results as given in publication PMC3771683 (Analytical chemistry, 2013).

Assays:
[1] = tested on: Mapk, Akt, and Rps6ka1 kinases; type: cell-based; details: MCF 10A cells treated with EGF or lapatinib vs DMSO; Western blotting and KAYAK
Tp53rk = target: T1, Tp53rk (Homo sapiens, UniProt Q96S44); test: AAP protein-level capture with TMT, staurosporine competition in HeLa lysate; type: binding
T1 sequence (Q96S44 1-253): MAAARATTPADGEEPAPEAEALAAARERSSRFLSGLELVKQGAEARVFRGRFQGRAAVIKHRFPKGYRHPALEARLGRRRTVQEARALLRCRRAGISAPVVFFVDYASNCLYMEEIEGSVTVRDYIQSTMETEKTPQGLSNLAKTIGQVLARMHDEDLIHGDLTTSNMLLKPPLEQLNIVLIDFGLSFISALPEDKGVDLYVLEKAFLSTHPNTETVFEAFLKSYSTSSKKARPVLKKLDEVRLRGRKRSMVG

| Compound | activation of Mapk, Akt, and Rps6ka1 kinases [1] | IC50 (Tp53rk) |
| --- | --- | --- |
| CS(=O)(=O)CCNCc1ccc(-c2ccc3ncnc(Nc4ccc(OCc5cccc(F)c5)c(Cl)c4)c3c2)o1 [lapatinib] | inhibition when lapatinib was present |  |
| CN[C@@H]1C[C@H]2O[C@@](C)([C@@H]1OC)n1c3ccccc3c3c4c(c5c6ccccc6n2c5c31)C(=O)NC4 [staurosporine] |  | 73 µM |
| EGF: stimulates EGFR and numerous downstream kinases | substantial activation |  |
